Measured values as given in patent publication US10676755B2, “Mutated acetohydroxyacid synthase genes in euphorbiaceae and plant material comprising such genes” (priority 2015, dated 2020).

Assays:
[1] = test system: wt cassava AHAS gene in CHI bacterial cells lacking the endogenous AHAS homolog; test: bacterial spot test, serially-diluted cells on herbicide plates; format: cell-based, Cassava (Manihot esculenta); conditions: negative control wt cassava AHAS gene
Protocol: (§1) Mutations were generated by site-directed mutagenesis (SDM) of the wild-type Cassava AHAS gene 1 and transformed into CHI bacterial cells lacking the endogenous AHAS homolog. Serially-diluted cells were plated onto plates with increasing concentrations of either imazamox (IM) or flumetsulam (TP). Cassava AHAS wt and a canola ALS mutant known to be highly herbicide tolerant were used as negative and positive controls, respectively. Representative set of bacterial spot tests showing the positive and negative controls, some other mutants tested and the W574S mutant. The herbicide concentrations listed on the left-most column correspond to the entire row and columns separate different lines. Each spot test consists of four 1:10 serial dilutions (10-3, 10-4, 10-5 and 10-6) after normalization based on the OD600 of each M9 liquid culture.
Mutations were generated by site-directed mutagenesis (SDM) of the wild-type Cassava AHAS gene 1 and transformed into CHI bacterial cells lacking the endogenous AHAS homolog. Serially-diluted cells were plated onto plates with increasing concentrations of either imazamox (IM) or flumetsulam (TP). Cassava AHAS wt and a canola ALS mutant known to be highly herbicide tolerant were used as negative and positive controls, respectively. […]

[2] = test system: canola ALS mutant in CHI bacterial cells; test: as above; format: cell-based; conditions: positive control canola ALS mutant
Protocol: as §1
as §1, with “D376A” for “W574S”

[3] = test system: cassava AHAS W574S mutant in CHI bacterial cells; test: as above; format: cell-based, Cassava (Manihot esculenta); conditions: similar to the canola positive control
Protocol: as §1

[4] = test system: cassava AHAS W574L mutant in CHI bacterial cells; test: kill curve assay, colonies counted on herbicide plates; format: cell-based, Cassava (Manihot esculenta); conditions: growth is inconsistent
Protocol: (§2) Mutants were also tested using a “kill curve” assay where equal numbers of cells containing the mutant of interest were plated onto plates with increasing concentrations of herbicide and the number of resulting colonies counted. Kill curve results averaged between three experiments, each with an average of three technical replicates. Error bars are ±one standard deviation of the averaged data. Results are depicted in FIG. 6.
(§3) Mutants were also tested using a “kill curve” assay where equal numbers of cells containing the mutant of interest were plated onto plates with increasing concentrations of herbicide and the number of resulting colonies counted. Kill curve results averaged between three experiments, each with an average of three technical replicates. Error bars are ±one standard deviation of the averaged data. Results are depicted in FIG. 8.

[5] = test system: cassava AHAS D376A mutant in CHI bacterial cells; test: bacterial spot test, serially-diluted cells on herbicide plates; format: cell-based, Cassava (Manihot esculenta)
Protocol: as §1, with “D376A” for “W574S”

[6] = test system: cassava AHAS W574L mutant in CHI bacterial cells; test: as above; format: cell-based, Cassava (Manihot esculenta); conditions: growth is inconsistent
Protocol: as §1, with “D376A” for “W574S”

[7] = test system: cassava AHAS D376A mutant in CHI bacterial cells; test: kill curve assay, colonies counted on herbicide plates; format: cell-based, Cassava (Manihot esculenta)
Protocol: as §3

[8] = test system: cassava AHAS W574S mutant in CHI bacterial cells; test: as above; format: cell-based, Cassava (Manihot esculenta)
Protocol: as §2

| Compound | growth of cells on plates containing herbicide [1] | growth of cells on plates containing herbicide [2] | herbicide concentration at which all growth ceased [2] | growth of cells on plates containing herbicide [3] | tolerance to herbicide [4] | tolerance to herbicide [5] | tolerance to herbicide [6] | tolerance to herbicide [7] | tolerance to herbicide [8] |
| --- | --- | --- | --- | --- | --- | --- | --- | --- | --- |
| COCc1cnc(C2=NC(C)(C(C)C)C(=O)N2)c(C(=O)O)c1 (stereo not drawn) [IM, imazamox] | failed to grow | grew on all concentrations | 5 mM | robust growth | robust tolerance | robust tolerance | robust tolerance | robust tolerance |  |
| Cc1ccn2nc(S(=O)(=O)Nc3c(F)cccc3F)nc2n1 [TP, flumetsulam] | failed to grow | grew on all concentrations | 5 mM | robust growth | robust tolerance |  | robust tolerance |  | enhanced tolerance |
